Drawing on ChEMBL document CHEMBL1130368, “Potent carboxylate inhibitors of stromelysin containing P2 piperazic acids and P1 biaryl moeities” (Bioorg Med Chem Lett, 1997), this text covers IC50 and Ki for ten compounds.

pIC50, pKi: −log10 of the molar value.

The assay addresses Stromelysin-1 (Homo sapiens, UniProt P08254). As to the kind of experiment: Inhibition of Matrix metalloprotease-3 by MCA peptide assay.

Stromelysin-1, sequence (P08254 whole entry): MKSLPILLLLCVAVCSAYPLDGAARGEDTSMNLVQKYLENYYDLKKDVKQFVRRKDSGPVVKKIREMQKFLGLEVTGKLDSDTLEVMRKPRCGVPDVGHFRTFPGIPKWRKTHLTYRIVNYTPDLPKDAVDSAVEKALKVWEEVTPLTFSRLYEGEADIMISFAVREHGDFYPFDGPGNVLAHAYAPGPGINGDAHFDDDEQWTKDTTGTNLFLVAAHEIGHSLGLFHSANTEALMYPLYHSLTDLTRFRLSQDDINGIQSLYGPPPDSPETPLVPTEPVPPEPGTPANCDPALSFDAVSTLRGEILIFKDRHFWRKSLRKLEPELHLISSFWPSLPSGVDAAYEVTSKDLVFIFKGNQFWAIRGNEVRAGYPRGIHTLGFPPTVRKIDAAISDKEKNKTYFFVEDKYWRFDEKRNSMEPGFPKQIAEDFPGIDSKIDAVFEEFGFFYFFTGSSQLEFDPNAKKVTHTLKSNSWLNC

By pIC50 is commonly meant the negative decadic logarithm of the IC50, by convention in mol/L. Read a low pIC50 as a high IC50. `CNC(=O)[C@@H]1CCCNN1C(=O)[C@H](CCOc1ccc(C(C)C)cc1)N[C@H](C)C(=O)O` showed a pIC50 of under 3.70.

What is called pKi is −log10 of the Ki, conventionally taken in molar units. A lower pKi goes with a large Ki. The compound `CNC(=O)[C@@H]1CCCNN1C(=O)[C@H](CCOc1ccc(-c2ccccc2)cc1)N[C@H](C)C(=O)O` showed a pKi of 7.11. On to `CNC(=O)[C@H](Cc1ccc(OC)cc1)NC(=O)[C@H](CCc1ccccc1)C[C@H](C)C(=O)O`, for which the pIC50 was 4.26. Same read-out and setting: as for `CNC(=O)[C@@H]1CCCNN1C(=O)[C@H](CCOc1ccc(CC2CCCC2)cc1)N[C@H](C)C(=O)O`, the figure is under 3.70.

In the case of `CCCC[C@@H](C[C@@H](CCc1ccc(-c2ccccc2)cc1)C(=O)N1NCCC[C@H]1C(=O)NC)C(=O)O`, the pKi is 7.38.

In the case of `CNC(=O)[C@H](Cc1ccc(OC)cc1)NC(=O)[C@H](CCc1ccc(-c2ccccc2)cc1)C[C@H](C)C(=O)O`, the pIC50 was 7.09.

The compound `CNC(=O)[C@@H]1CCCNN1C(=O)[C@H](CC(C)C)[C@H](C)C(=O)NO` showed a pIC50 of 7.52. `CCCC[C@@H](C[C@@H](CCc1ccc(-c2ccccc2)cc1)C(=O)N[C@@H](Cc1ccc(OC)cc1)C(=O)NC)C(=O)O` showed a pKi of 7.68. In turn, `CNC(=O)[C@@H]1CCCNN1C(=O)[C@H](CCOc1ccc(Cc2ccccc2)cc1)N[C@H](C)C(=O)O` gave a pKi of 6.26.

Take `CCCCc1ccc(OCC[C@H](N[C@H](C)C(=O)O)C(=O)N2NCCC[C@H]2C(=O)NC)cc1`: the pKi was 6.26.
